# Positions of bridges follow the written chain, without caps; N, C: chain ends. Non-standard residues stand in square brackets, D forms with d. Residues, ends and D or L forms follow the SMILES beside them. Chains are numbered I, II in the order given. No end group written: not given here. dibenzylether crosslinker = scaffold alkylating both cysteine thiols (drawn in Scheme 1 and; hArg = N=C(N)NCCCC[C@H](N)C(=O)O; DZ = diazirine photocrosslinker
# Key:
# H-Ras = biological target: T1, H-Ras (Homo sapiens, UniProt P01112); experiment: Photoaffinity labeling of purified H-Ras and tryptic digest MS; assay type: binding; settings: 5 eq. probe, UV light, trypsin digest
# T1 construct: Wild-type and mutant N-terminal His6-H-Ras (residues 1-166) in pProEx HTb expression vector; His6 (N, cleaved yes); made in house; host or cells: Escherichia coli (BL21)
# Experimental: For each experiment, a sample of 250 μM diazirine-labeled CHD peptide was
# Incubated samples were then photo-irradiated for 5 minutes at 24 °C. Photo-conjugated samples were then mixed with 1× SDS-PAGE loading buffer containing 5% 2-mercaptoethanol (200 μL final volume) and heated at 95° C. for 5 minutes. Heated samples were then separated via SDS-PAGE gel electrophoresis on a 1.0 mm 15% polyacrylamide gel. The resulting gel was stained with Coomassie Brilliant Dye and subsequently destained (40% MeOH/10% acetic acid/50% water).
# In-gel tryptic digest was conducted with the In-Gel tryptic Digestion Kit (Thermo Scientific) according the manufacturer's instructions. Upon photoaffinity labeling, the conjugated band was isolated as a 1×1 mm segment for in-gel trypsin digest. The isolated gel band was then incubated with 200 μL of Coomassie destaining solution (25 mM ammonium bicarbonate in 1:1 ultrapure water:acetonitrile) for 30 minutes at 37 °C. After incubation, destaining buffer was removed, and the destaining step was repeated twice more. The destained gel band was treated with reducing buffer (25 mM of ammonium bicarbonate, 50 mM TCEP) for 10 minutes at 60° C. After discarding the reducing buffer, the band was treated with 200 μL of iodoacetamide alkylation solution (25 mM ammonium bicarbonate, 100 mM iodoacetamide) for 30 minutes at 37° C. while shaking in the dark. […]
# [1] = biological target: T2, wild-type His6-tagged H-Ras (1-166) pre-loaded with GDP (Homo sapiens, UniProt P01112); experiment: Fluorescence polarization binding assay, wild-type H-Ras-GDP
# T2 construct: wild-type and mutant His6-tagged H-Ras (1-166) pre-loaded with GDP; made in house; host or cells: Escherichia coli (BL21)
# Text: GTP of the Ras-specific nucleotide exchange factor SOS. Cell 112, 685-695 (2003).
# H358 cells = experiment: Photoaffinity labeling with quantitative MS-based proteomics in H358 cells; assay type: cell-based, Homo sapiens; settings: TMT abundance, negative control diazirine probe
# Experimental: H358 cells were grown to 80-95% confluence in 10 cm plates with FBS-supplemented RPMI-1640. The growth medium was aspirated and the cells were washed with Dulbecco's phosphate-buffered saline (DPBS). The cells were then incubated with serum-free medium containing probes DZ2-CHC^Sos-5 (20 μM in RPMI-1640 with 0.4% DMSO, two replicates) or control probe CP-2-66 (20 μM in RPMI-1640 with 0.4% DMSO, four replicates) for 4 hours at 37° C. under an atmosphere of 5% CO2 before being irradiated under UV light (365 nm, 30 min, 4° C.). The cells were washed with DPBS, scraped and transferred to 1.5 mL Eppendorf tubes, pelleted, and stored at −80° C. until the next step.
# Cell pellets were resuspended in 500 μL of DPBS and lysed by sonication (15 ms on, 40 ms off, 15% amplitude, 1 s total on×2). Protein concentrations were normalized (1-2 mg/mL; final volume of 500 μL with DPBS) using the Lowry Protein Assay (Pierce). To each sample was added solutions of tris((1-benzyl-4-triazolyl)methyl)amine (30 μl, 1.7 mM in DMSO/t-BuOH 1:4 v/v), tris(2-carboxyethyl)phosphine (10 μL, 50 mM), biotin-PEG3-azide (5 μL, 100 μM), and CuSO4 (10 μL, 50 mM) and the samples were shaken at room temperature for 1 hour. A cold MeOH/CHCI3 mixture (2.5 mL, 4:1 v/v) was added to each lysate, followed by 1 mL of cold DPBS. The resulting mixture was vortexed and centrifuged (4,700× g, 10 min, 4° C.). The organic and aqueous layers were aspirated, and the remaining protein disk was further washed via sonication in cold MeOH/CHCl3 solution (2 mL, 4:1) and pelleted by centrifugation (4,700× g, 10 min, 4° C.). The protein pellet was aspirated and combined with freshly prepared urea solution (500 μL, 6 M in DPBS) and a solution of SDS (with 10 μL of 10% w/v) by sonication. A freshly prepared 1:1 solution (50 μL) of TCEP (200 mM in DPBS) and K2CO3 (600 mM in DPBS) was added and the mixture was incubated for 30 min at 37° C. with shaking. A solution of freshly prepared iodoacetamide (70 μL, 400 mM in DPBS) was added and the mixture was incubated at RT in the absence of light. Each sample was combined with a solution of SDS (130 μL, 10% in DPBS w/v) followed by DPBS (5.5 mL) and incubated with pre-equilibrated streptavidin-agarose beads (100 μL of a 50% slurry; Pierce) for 1.5 hours at RT while rotating. The streptavidin beads were pelleted by centrifugation (750 g, 2 min, 4° C.) and sequentially washed with SDS solution (1×5 mL, 0.2% in DPBS), DPBS (2×5 mL), and triethylammonium bicarbonate buffer (1×5 mL, TEAB, 100 mM, pH 8.4). The beads were resuspended in TEAB (0.5 mL, 100 mM pH 8.5) and transferred into LoBind microcentrifuge tubes. The tube was washed once more with TEAB (0.5 mL, 100 mM pH 8.5) to ensure complete transfer of the beads, which were then pelleted by centrifugation (750× g, 2 min, 4° C. and the supernatant aspirated. Each sample of beads was combined with a solution of CaCl2 (2 μL, 100 mM) and a solution of sequencing-grade porcine trypsin (2 μg, Promega in 200 μL TEAB, 100 mM, pH 8.4), and incubated for 14 hours at 37° C.with shaking. The beads were pelleted by centrifugation (750× g, 2 min, 4° C.) and the supernatants were transferred to new
# LoBind micro-centrifuge tubes. Each digested sample was TMT 10plex labeled (Thermo Fisher Scientific): for each sample a stock solution of TMT reagent (8 μL, 20 μg/μL) was added along with dry MS-grade acetonitrile (final acetonitrile concentration 30% v/v), followed by incubation at RT for 1 hour. The reaction was quenched by adding hydroxylamine (6 μL) and left to stand for 15 min, followed by the addition of formic acid (5 μL). Each TMT-labeled sample was dried via vacuum centrifugation, and the samples were combined by redissolving one sample in a solution of trifluoroacetic acid (TFA, 200 μL, 0.1% in water) and transferring the solution into each sample tube until all samples were redissolved. […]
compound,measurement,setting,value
DZ1-CHC^Sos-5: CHD^Sos-5 with diazirine photocrosslinker at N-terminus of αI helix: DZ-GLAWRLRELERELARLC-NH2 (chain 1 WIGRLCTEI[hArg]RLRNGN; chain 2 {DZ}-GLAWRLRELERELARLC-NH2; linker I:6-II:17 via dibenzylether crosslinker),Ras binding site by photo-crosslinking,H-Ras,photo-crosslinked with the Ras hinge region
"CC[C@H](C)[C@H](NC(=O)[C@H](Cc1ccccc1)NC(C)=O)C(=O)NCC(=O)N[C@@H](CCCNC(=N)N)C(=O)N[C@@H](CC(C)C)C(=O)N[C@@H](CSCc1ccc(COCc2ccc(CSC[C@H](NC(=O)[C@H](CC(C)C)NC(=O)[C@H](CCCNC(=N)N)NC(=O)[C@H](C)NC(=O)[C@H](CC(C)C)NC(=O)[C@H](CCC(=O)O)NC(=O)[C@H](CCCNC(=N)N)NC(=O)[C@H](CCC(=O)O)NC(=O)[C@H](CC(C)C)NC(=O)[C@H](CCC(=O)O)NC(=O)[C@H](CCCNC(=N)N)NC(=O)[C@H](CC(C)C)NC(=O)[C@H](CCCNC(=N)N)NC(=O)[C@H](Cc3c[nH]c4ccccc34)NC(=O)[C@H](C)NC(=O)[C@H](CC(C)C)NC(C)=O)C(N)=O)cc2)cc1)C(=O)N[C@H](C(=O)N[C@@H](CC(N)=O)C(=O)N[C@H](C(=O)N[C@@H](CC(C)C)C(=O)N[C@@H](CCCCN)C(=O)N[C@@H](CC(C)C)C(=O)N[C@@H](CCCNC(=N)N)C(=O)N[C@@H](CCC(=O)O)C(=O)NCC(=O)N[C@@H](CC(N)=O)C(N)=O)[C@@H](C)CC)[C@@H](C)O [CHC^Sos-1] (HELM PEPTIDE1{[ac].F.I.G.R.L.C.T.N.I.L.K.L.R.E.G.N.[am]}|PEPTIDE2{[ac].L.A.W.R.L.R.E.L.E.R.E.L.A.R.L.C.[am]}|CHEM1{[c1cc(C[*:1])ccc1COCc1ccc(C[*:2])cc1]}$PEPTIDE1,CHEM1,7:R3-1:R1|PEPTIDE2,CHEM1,17:R3-1:R2$$$V2.0)",Kd,[1],32 ± 6 µM
C#CCCC1(CCC(=O)NC)N=N1 [CP-266],Average Abundance CP-266,H358 cells; enriched protein AHSA1 (O95433),157
same,Average Abundance CP-266,H358 cells; enriched protein EEF1D (P29692),614
same,Average Abundance CP-266,H358 cells; enriched protein HNRNPR (O43390),1745
same,Average Abundance CP-266,H358 cells; enriched protein PMVK (Q15126),177
same,Average Abundance CP-266,H358 cells; enriched protein PPP4C (P60510),60
same,Average Abundance CP-266,H358 cells; enriched protein STK26 (Q9P289),170

# Source: patent publication US20240124539A1, “CROSSLINKED HELIX DIMER MIMICS OF SOS AND METHODS OF USING SAME” (NEW YORK UNIVERSITY, priority 2020, published 2024)
